Data taken from patent US8247211B2, “Glycopeptide antibiotics” (American Cyanamid Company, priority 2001, dated 2012).
Converted amounts (≈) assume the structure as drawn.

Key:
Assay in all cases: In vitro antibacterial evaluation: minimum inhibitory concentration (MIC), broth dilution method
Type in all cases: cell-based
Conditions in all cases: broth dilution, 18 hours at 35° C.
[1] = test system: Escherichia coli
[2] = test system: Streptococcus sp.
Procedure, shortened: (§1)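 Test strains, among them recent clinical isolates carrying methicillin, penicillin and/or vancomycin resistance, were inoculated at 5×10^5 CFU/mL. A broth dilution series spanning 64-0.06 μg/mL in Muller-Hinton II […] (NCCLS M7-A2) defined the MIC as the lowest growth-inhibiting concentration.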

[3] = test system: Staphylococcus sp.
Procedure, shortened: as §1

[4] = test system: Enterococcus sp.
Procedure, shortened: as §1

`COc1cc(-c2nc3cc(CC4NC(=O)C(C(C)c5ccccc5)NC(=O)CNC(=O)C(CO)NC(=O)C(C(O)C5CNC(=N)N5C5OC(CO)C(O)C(O)C5O)NC(=O)C(C(O)C5CNC(=N)N5)NC4=O)ccc3o2)cc(OC)c1OC` (stereo not drawn) [Example 34, Cyclo[3-[2-(3,4,5-trimethoxyphenyl)-1,3-benzoxazol-5-yl]alanyl-3-(2-iminoimidazolidin-4-yl)seryl-3-(3-hexopyranosyl-2-iminoimidazolidin-4-yl)serylserylglycyl-β-methylphenyl-alanyl]] was tested, and the “MIC Escherichia coli (ATCC 25922)” value [1] was 64 µg/mL (≈ 55.1 µM), the “MIC Escherichia coli (GC 4559)” value [1] was 64 µg/mL (≈ 55.1 µM) and the “MIC Escherichia coli (GC 4560)” value [1] was 16 µg/mL (≈ 13.8 µM). The “MIC Streptococcus agalactiae (GC 4564)” value ([2]; Streptococcus agalactiae (GC 4564)) was 32 µg/mL (≈ 27.5 µM), the “MIC Streptococcus pneumoniae (ATCC 6301)” value ([2]; Streptococcus pneumoniae (ATCC 6301)) was 32 µg/mL (≈ 27.5 µM) and the “MIC Streptococcus pneumoniae (GC 1894)” value ([2]; Streptococcus pneumoniae (GC 1894)) was 16 µg/mL (≈ 13.8 µM). For the same compound, the “MIC Streptococcus pneumoniae (GC 4565)” value ([2]; Streptococcus pneumoniae (GC 4565)) was 32 µg/mL (≈ 27.5 µM), the “MIC Streptococcus pyogenes (GC 4563)” value ([2]; Streptococcus pyogenes (GC 4563)) was 8 µg/mL (≈ 6.88 µM) and the “MIC Streptococcus agalactiae (GC 4564)” value [2] was 32 µg/mL (≈ 27.5 µM). The “MIC Streptococcus pneumoniae (ATCC 6301)” value [2] was 32 µg/mL (≈ 27.5 µM), the “MIC Streptococcus pneumoniae (GC 1894)” value [2] was 16 µg/mL (≈ 13.8 µM) and the “MIC Streptococcus pneumoniae (GC 4565)” value [2] was 32 µg/mL (≈ 27.5 µM). For the same compound, the “MIC Streptococcus pyogenes (GC 4563)” value [2] was 8 µg/mL (≈ 6.88 µM), the “MIC Coagulase Negative Staphylococcus (GC 4547)” value [3] was 16 µg/mL (≈ 13.8 µM) and the “MIC Coagulase Negative Staphylococcus (GC 4548)” value [3] was 16 µg/mL (≈ 13.8 µM). The “MIC Coagulase Negative Staphylococcus (GC 4549)” value [3] was 4 µg/mL (≈ 3.44 µM), the “MIC Coagulase Negative Staphylococcus (GC 4551)” value [3] was 32 µg/mL (≈ 27.5 µM) and the “MIC Coagulase Negative Staphylococcus (GC 6257)” value [3] was 8 µg/mL (≈ 6.88 µM). For the same compound, the “MIC Staphylococcus aureus SMITH (GC 4543)” value [3] was 16 µg/mL (≈ 13.8 µM), the “MIC Staphylococcus haemolyticus (GC 4546)” value [3] was 8 µg/mL (≈ 6.88 µM) and the “MIC Staphylococcus aureus-SMITH (GC 4543)” value ([3]; strain SMITH GC 4543) was 16 µg/mL (≈ 13.8 µM). The “MIC Enterococcus avium (GC 4558)” value ([4]; Enterococcus avium (GC 4558)) was 16 µg/mL (≈ 13.8 µM), the “MIC Enterococcus faecalis (ATCC 29212)” value ([4]; Enterococcus faecalis (ATCC 29212)) was 64 µg/mL (≈ 55.1 µM) and the “MIC Enterococcus faecalis (GC 2242)” value ([4]; Enterococcus faecalis (GC 2242)) was 32 µg/mL (≈ 27.5 µM). For the same compound, the “MIC Enterococcus faecalis (GC 2691)” value ([4]; Enterococcus faecalis (GC 2691)) was 32 µg/mL (≈ 27.5 µM), the “MIC Enterococcus faecalis (GC 3059)” value ([4]; Enterococcus faecalis (GC 3059)) was 32 µg/mL (≈ 27.5 µM) and the “MIC Enterococcus faecalis (GC 4552)” value ([4]; Enterococcus faecalis (GC 4552)) was 32 µg/mL (≈ 27.5 µM). For the same compound, the “MIC Enterococcus faecalis (GC 4553)” value ([4]; Enterococcus faecalis (GC 4553)) was 32 µg/mL (≈ 27.5 µM), the “MIC Enterococcus faecalis (GC 4554)” value ([4]; Enterococcus faecalis (GC 4554)) was 32 µg/mL (≈ 27.5 µM) and the “MIC Enterococcus faecalis (GC 6189)” value ([4]; Enterococcus faecalis (GC 6189)) was 64 µg/mL (≈ 55.1 µM). For the same compound, the “MIC Enterococcus faecium (GC 2243)” value ([4]; Enterococcus faecium (GC 2243)) was 32 µg/mL (≈ 27.5 µM), the “MIC Enterococcus faecium (GC 4556)” value ([4]; Enterococcus faecium (GC 4556)) was 64 µg/mL (≈ 55.1 µM) and the “MIC Enterococcus faecium (GC 4557)” value ([4]; Enterococcus faecium (GC 4557)) was 8 µg/mL (≈ 6.88 µM). The “MIC Enterococcus avium (GC 4558)” value [4] was 16 µg/mL (≈ 13.8 µM), the “MIC Enterococcus faecalis (ATCC 29212)” value [4] was 64 µg/mL (≈ 55.1 µM) and the “MIC Enterococcus faecalis (GC 2242)” value [4] was 32 µg/mL (≈ 27.5 µM). For the same compound, the “MIC Enterococcus faecalis (GC 2691)” value [4] was 32 µg/mL (≈ 27.5 µM), the “MIC Enterococcus faecalis (GC 3059)” value [4] was 32 µg/mL (≈ 27.5 µM) and the “MIC Enterococcus faecalis (GC 4552)” value [4] was 32 µg/mL (≈ 27.5 µM). The “MIC Enterococcus faecalis (GC 4553)” value [4] was 32 µg/mL (≈ 27.5 µM), the “MIC Enterococcus faecalis (GC 4554)” value [4] was 32 µg/mL (≈ 27.5 µM) and the “MIC Enterococcus faecalis (GC 6189)” value [4] was 64 µg/mL (≈ 55.1 µM). The “MIC Enterococcus faecium (GC 2243)” value [4] was 32 µg/mL (≈ 27.5 µM), the “MIC Enterococcus faecium (GC 4556)” value [4] was 64 µg/mL (≈ 55.1 µM) and the “MIC Enterococcus faecium (GC 4557)” value [4] was 8 µg/mL (≈ 6.88 µM).
